# In patent US20260028334A1, “N-(3-(BENZO[B]THIOPHENE-2-CARBOXAMIDO)-PHENYL)-2,3-DIHYDROBENZO[B][1,4]DIOXINE-6-CARBOXAMIDE DERIVATIVES AND RELATED COMPOUNDS AS LACTATE/ATP PRODUCTION INHIBITORS FOR THE TREATMENT OF CANCER” (WMT Aktiengesellschaft, priority 2022, published 2026):
# Columns and labels:
# lactate production = test: Lactate production inhibition assay; assay type: cell-based; conditions: summary of Table 1
# Source text: Recombinant Lactate Dehydrogenase A (LDHA) was used to convert lactate in tissue culture supernatants to pyruvate, with the concomitant reduction of NAD^+ to NADH. The electron acceptor 1-methoxyphenazine methosulfate (MPMS) was then reduced by the generated NADH, thereby regenerating NAD+. Reduced 1-methoxyphenazine methosulfate is used in turn to reduce Water Soluble Tetrazolium 8 (WST8) to an orange WST8 formazan product. The assay is adapted from the publication “Application of WST-8 based colorimetric NAD(P)H detection for quantitative dehydrogenase assays” described in Chamchoy et al., BMC Biochemistry (2019) 20(1):4.
# Cells were plated at 4,000 per well in 96-well plate in a medium of high glucose DMEM (PAN) supplemented with 10% FBS (PAN), 2 mM glutamine-alanine (PAN), 2 mM pyruvate (Sigma) and 10 mL/L penicillin-streptomycin (PAN) and grown at 37° C. in 0.5% O2, 5% CO2 and 75% humidity. For hypoxia, cells were grown and treated in the Whitley H35 Hypoxystation (Don Whitley Scientific) at 37° C. in 0.5% O2, 5% CO2 and 75% humidity. The next day, cells were induced with test compounds (FIG. 2: compounds of examples 3/16, 3/8, 10 at 10000, 3333, 1111, 370, 123, 41, 14, 5 and 1.5 nM; FIG. 7: compounds of examples 3/16, 3/8, 10 at 41, 14, 4.6 nM and Phenformin at 100, 50, 25, 12.5, 6.25 μM; FIGS. 8C and 8D: compounds of example 3/16, 3/8, 10, 3/19, 30 and 30/2 at 10000, 3333, 1111, 370, 123, 41, 14, 5 and 1.5 nM), as well as with vehicle (DMSO) only, for 48 hours. After this time, the medium was removed from the cells to measure extracellular lactate. To detect extracellular lactate, cell supernatants are diluted 1:5 in assay buffer (0.2 M tris, pH 8.2) by adding 10 μl cell supernatant+40 μl buffer in a 96-well plate. Assay substrate mix is prepared by adding NAD+ (3.75 mM), WST-8 (0.9 mM), MPMS (10 mM) and recombinant LDHA, expressed in E. coli as an N-terminal hexahistidine tagged fusion protein, is added to a final concentration of 0.8 μg/ml in assay buffer. Thereafter, 80 μl of substrate mix is added to 20 μl of diluted cell supernatant in a 96-well flat-bottomed plate and the absorbance at 460 nm determined at one minute intervals over a 30 minute period. A standard curve of known lactate concentrations of 10, 8, 6, 4, 1, 0.5 and 0.25 mM was constructed for each assay plate.
# [1] = tested on: ER stress markers CHAC and CHOP/DDIT3; test: Gene expression analysis by qPCR (FIG. 8E-8AB); assay type: cell-based; conditions: Panc02 and SKOV3 cells, 10 nM, 0.5, 1, 2 and 4 hours
# Method: Cells were plated at 40,000 cells per ml in medium of high glucose DMEM (PAN) supplemented with 10% FBS (PAN), 2 mM glutamine-alanine (PAN), 2 mM pyruvate (Sigma) and 10 mL/L penicillin-streptomycin (PAN), and grown at 37° C. in 0.5% O2, 5% CO2 and 75% humidity. Next day, cells were induced with test compounds (FIG. 3: compounds of example 3/16, 3/8, 10 at 10 nM; FIG. 8E-8AB: compounds of example 3/16, 3/8, 10, 3/19, 30 and 30/2 at 10 nM) 0.5, 1, 2 and 4 hours, as well as with vehicle (DMSO) only. After this time, the cells were lysed according to protocol (Promega, SV 96 Total RNA Isolation System, #Z3505). After transferring the lysate to a 96-well-RNA binding plate, RNA was isolated and put at approx. 1 μg into cDNA synthesis using LunaScript RT SuperMix Kit (NEB, #E3010). The resulting cDNA was diluted 1:5 and used for qPCR Analysis (Taqman). Luna Universal Probe qPCR Master Mix (NEB, #M3004) is used as 2× reaction mix to which the diluted cDNA is added. The qPCR analysis was performed using QuantStudio™ 6 Flex real-time PCR systems (Thermo Fisher Scientific).
# A set of primers plus probe for each gene of interest was purchased at IDT (Integrated DNA Technologies).
Structure (SMILES),activity in inhibiting production of ATP and/or lactate (lactate production),ER stress markers CHAC and CHOP/DDIT3 [1]
Cc1ccc(NC(=O)c2ccc3c(c2)OCCO3)cc1NC(=O)c1cc2cccnc2s1 [3/16],high activity,time-dependent upregulation
O=C(Nc1ccc(F)c(NC(=O)c2cc3ccc(OCCCN4CCCC4)cc3s2)c1)c1ccc2c(c1)OCCO2 [3/8],high activity,time-dependent upregulation
